Assay results taken from ChEMBL document CHEMBL5096160, “Targeting SHP2 as a therapeutic strategy for inflammatory diseases” (Eur J Med Chem, 2021).
≈ marks a conversion by molar mass, not a printed value. Each block holds one molecule with its values, some of them ahead of it.

Columns and labels:
[1] = molecular target: T1, Tyrosine-protein phosphatase non-receptor type 11 (Homo sapiens, UniProt Q06124); experiment: Inhibition of SHP2 (unknown origin) using EFpYAEVGRSPPDPAK incubated for 0.5 hrs by malachite green reagent based assay
T1 sequence (Q06124 whole entry): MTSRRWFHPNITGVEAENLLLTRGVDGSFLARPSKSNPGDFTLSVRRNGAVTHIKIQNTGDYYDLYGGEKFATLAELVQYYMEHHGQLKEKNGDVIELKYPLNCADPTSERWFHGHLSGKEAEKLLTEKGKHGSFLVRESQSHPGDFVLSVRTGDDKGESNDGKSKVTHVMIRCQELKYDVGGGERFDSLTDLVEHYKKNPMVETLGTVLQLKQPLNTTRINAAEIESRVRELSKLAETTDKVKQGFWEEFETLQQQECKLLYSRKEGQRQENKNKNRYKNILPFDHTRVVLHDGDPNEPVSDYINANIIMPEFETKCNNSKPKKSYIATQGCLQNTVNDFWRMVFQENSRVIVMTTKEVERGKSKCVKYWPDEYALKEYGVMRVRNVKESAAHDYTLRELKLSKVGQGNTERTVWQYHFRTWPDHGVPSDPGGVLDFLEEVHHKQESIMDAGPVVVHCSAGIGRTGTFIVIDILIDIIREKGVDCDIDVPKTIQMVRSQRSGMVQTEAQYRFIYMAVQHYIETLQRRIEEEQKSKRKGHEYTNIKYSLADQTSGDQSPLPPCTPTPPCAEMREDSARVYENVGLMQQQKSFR

[2] = molecular target: Tyrosine-protein phosphatase non-receptor type 6 (Homo sapiens) (UniProt P29350); experiment: Inhibition of SHP1 (unknown origin) using EFpYAEVGRSPPDPAK incubated for 0.5 hrs by malachite green reagent assay
Sequence of Tyrosine-protein phosphatase non-receptor type 6 (Homo sapiens) (P29350 whole entry): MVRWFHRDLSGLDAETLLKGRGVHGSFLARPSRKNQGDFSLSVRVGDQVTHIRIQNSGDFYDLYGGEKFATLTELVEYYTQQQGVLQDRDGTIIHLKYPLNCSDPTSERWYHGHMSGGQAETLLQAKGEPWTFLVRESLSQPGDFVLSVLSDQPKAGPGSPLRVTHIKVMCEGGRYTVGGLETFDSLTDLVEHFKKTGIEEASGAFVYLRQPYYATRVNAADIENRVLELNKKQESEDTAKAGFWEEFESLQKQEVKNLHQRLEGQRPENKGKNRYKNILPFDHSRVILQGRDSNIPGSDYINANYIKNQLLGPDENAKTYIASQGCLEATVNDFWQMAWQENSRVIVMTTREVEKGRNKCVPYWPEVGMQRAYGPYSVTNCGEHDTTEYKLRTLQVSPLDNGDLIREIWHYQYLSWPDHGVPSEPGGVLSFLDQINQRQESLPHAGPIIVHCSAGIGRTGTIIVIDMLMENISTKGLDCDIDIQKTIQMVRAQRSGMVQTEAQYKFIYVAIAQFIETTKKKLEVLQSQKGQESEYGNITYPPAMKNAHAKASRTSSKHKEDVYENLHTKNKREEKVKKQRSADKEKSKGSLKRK

[3] = test system: BaF3; experiment: Cytotoxicity against mouse BaF3 cells assessed as inhibition of cell proliferation incubated for 48 hrs by MTT assay; type: functional, cell-based; conditions: BaF3, 48 h
[4] = molecular target: T1, Tyrosine-protein phosphatase non-receptor type 11; experiment: Inhibition of human SHP2 catalytic domain expressed in Escherichia coli using p-nitrophenyl phosphate as substrate by spectrophotometric method
[5] = molecular target: T1, Tyrosine-protein phosphatase non-receptor type 11; experiment: Inhibition of N-terminal hexaHis-tagged catalytic domain of human SHP2 (248 to 527 residues) expressed as Escherichia coli Rosetta (DE3) using DiFMUP as substrate preincubated for 1 hr followed by substrate addition by fluorescence based analysis
[6] = molecular target: T2, Tyrosine-protein phosphatase non-receptor type 11 (Homo sapiens) (UniProt Q06124); experiment: Inhibition of recombinant SHP2 (unknown origin)
T2 sequence (whole entry): T1 sequence (Q06124 whole entry)

[7] = molecular target: T1, Tyrosine-protein phosphatase non-receptor type 11; experiment: Inhibition of N-terminal 6His-tagged full-length H2N-VE(pY)LDLDLD(PEG8)RVD(pY)VVVDQQ-amide-activated SHP2 (247 to 529 residues) (unknown origin) expressed in Escherichia coli BL21 (DE3) using DiFMUP as substrate preincubated for 10 to 30 mins with activating peptide prior to compound addition for 30 mins followed by substrate addition and measured for 6 mins by fluorescence based assay
[8] = test system: SW1463; experiment: Cytotoxicity against human SW1463 cells assessed as inhibition of cell growth incubated for 120 hrs by MTT assay; type: functional, cell-based; conditions: SW1463, 120 h
[9] = molecular target: T2, Tyrosine-protein phosphatase non-receptor type 11 (Homo sapiens); experiment: Inhibition of SHP2 in human LS180 cells; type: cell-based
[10] = molecular target: T1, Tyrosine-protein phosphatase non-receptor type 11; experiment: Inhibition of human recombinant SHP2 expressed in Escherichia coli using p-nitrophenyl phosphate as substrate preincubated for 2 mins followed by substrate addition by microplate spectrophotometer analysis
[11] = Cytotoxicity against human LN-444 cells assessed as reduction in cell viability incubated for 72 hrs by WST-1 assay; type: functional, cell-based; conditions: LN-444, 72 h
[12] = test system: Capan-2; experiment: Cytotoxicity against human Capan-2 cells harbouring K-ras mutant assessed as reduction in cell viability incubated for 144 hrs; type: functional, cell-based; conditions: Capan-2, 144 h
[13] = molecular target: Tyrosine-protein phosphatase non-receptor type 11 (Mus musculus, UniProt P35235); experiment: Inhibition of SHP2 in mouse EMT6 cells harboring SOS1 mutation; type: cell-based
Sequence of Tyrosine-protein phosphatase non-receptor type 11 (Mus musculus, UniProt P35235) (P35235 2-593 limits assumed, stated change not applied): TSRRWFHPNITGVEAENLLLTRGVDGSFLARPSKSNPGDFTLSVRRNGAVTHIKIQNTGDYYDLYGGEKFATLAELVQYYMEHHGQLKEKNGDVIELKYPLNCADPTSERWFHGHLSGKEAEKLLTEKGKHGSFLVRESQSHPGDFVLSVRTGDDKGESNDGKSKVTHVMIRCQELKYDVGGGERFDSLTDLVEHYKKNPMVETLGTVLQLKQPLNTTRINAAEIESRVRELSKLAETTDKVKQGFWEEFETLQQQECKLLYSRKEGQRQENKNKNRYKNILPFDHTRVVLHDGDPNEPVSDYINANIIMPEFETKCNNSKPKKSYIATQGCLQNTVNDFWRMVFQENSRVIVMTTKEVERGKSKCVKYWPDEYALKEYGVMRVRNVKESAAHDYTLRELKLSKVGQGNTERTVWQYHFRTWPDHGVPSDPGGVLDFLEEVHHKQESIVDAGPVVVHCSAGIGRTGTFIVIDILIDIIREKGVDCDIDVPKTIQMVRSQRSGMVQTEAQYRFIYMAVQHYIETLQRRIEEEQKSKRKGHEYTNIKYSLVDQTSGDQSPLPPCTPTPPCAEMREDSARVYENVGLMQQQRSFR

[14] = molecular target: T1, Tyrosine-protein phosphatase non-receptor type 11; experiment: Inhibition of recombinant human GST-tagged SHP2 expressed in Escherichia coli BL21 incubated for 30 mins by DiFMUP fluorescence assay
[15] = test system: A549; experiment: Antiproliferative activity against human A549 cells assessed as inhibition of cell growth measured after 72 hrs by CCK-8 assay; type: functional, cell-based; conditions: A549, 72 h
[16] = molecular target: T1, Tyrosine-protein phosphatase non-receptor type 11; experiment: Inhibition of GST-tagged SHP2 (unknown origin) using 8-difluoro-4-methylumbelliferyl phosphate as a substrate measured after 30 mins by fluorescence based analysis

SMILES: NCC1CCN(c2ncc(-c3cccc(Cl)c3Cl)cc2CO)CC1
IC50 [1]: 1360 nM
IC5 [2]: 100 µM
IC50 [3]: 2350 nM

IC50 [4]: 800 nM
SMILES: CCCCCCCCCCCC(=O)C1=C2C3=COC(C)=CC3=CC(=O)[C@]2(C)OC1=O

SMILES: O=C1/C(=N/Nc2ccc(S(=O)(=O)O)cc2)C(c2ccc([N+](=O)[O-])cc2)=NN1c1ccc([N+](=O)[O-])cc1
IC50 [5]: 71 nM

IC5 [6]: 1.1 µM
SMILES: O=C(O)c1ccccc1-c1ccc(/C=c2/sc3nc4cc(Br)cnc4n3c2=O)o1

IC50 [4]: 700 nM
SMILES: CCCCCCCCCC[C@@H](C)C(=O)C1=C2C3=COC(C)=CC3=CC(=O)[C@]2(C)OC1=O

SMILES: N[C@@H]1COCC12CCN(c1cnc3c(Sc4cccc(Cl)c4Cl)n[nH]c3n1)CC2
IC50 [7]: 2.1 nM
IC50 [8]: 590 nM
MIC [9]: 10 µM (≈ 4.51 µg/mL)

IC50 [10]: 990 nM
SMILES: CCOC(=O)c1sc(-c2ccc(OC)cc2)nc1COc1ccc(Cl)cc1

SMILES: CC1(N)CCN(c2cnc(-c3cccc(Cl)c3Cl)c(N)n2)CC1
IC50 [3]: 19900 nM
IC50 [11]: 38000 nM
IC50 [12]: 15700 nM

IC50 [13]: 7 nM
SMILES: Cc1nc(N2CCC3(CC2)CO[C@@H](C)[C@H]3N)c(CO)nc1-c1cccc(Cl)c1Cl

SMILES: CC(=O)O[C@H]1CC[C@]2(C)c3c(O)c4c(c(O)c3C(=O)CC2C1(C)C)C[C@H](C)O4 (some centres undefined)
IC50 [14]: 8790 nM
IC50 [15]: 10800 nM

IC50 [10]: 4300 nM
SMILES: CCOC(=O)c1sc(-c2ccc([N+](=O)[O-])cc2)nc1COc1ccc(Cl)cc1

IC50 [16]: 19000 nM
SMILES: C/C(=C\[C@H](O)C[C@@H](C)[C@H]1CC[C@@]2(C)[C@@H]3CC[C@H]4C(C)(C)[C@@H](O)CC[C@@]45C[C@@]35CC[C@]12C)C(=O)O
